Experimental data: US12521439B2, “Methods and materials for modulating Nrf2 pathway” (The General Hospital Corporation, priority 2019, dated 2026)

Columns and labels:
[1] = system: HO1 transcripts in MDA-MB-231 tumors; experiment: HO1 mRNA in fat pad breast tumors in vivo; set-up: species or system mice; settings: 7.5 mg/kg i.p. for four consecutive days
Procedure: (§1) Real-time qRT-PCR: Total RNA isolation from cultured cells was performed using RNeasy kit (Qiagen), followed by reverse transcription with OneScript cDNA synthesis Kit (ABM). mRNA expression of different genes was then analyzed by quantitative PCR using PowerUp SYBR Green Master Mix (Applied Biosystems) and performed using a QuantStudio3 real-time PCR system (Applied Biosystems). Primer sequences for HO1, NQO1, TXNRD2 were obtained from the MGH primer bank and were as follows: HO1 Forward, 5′-[…]-3′ and reverse 5′-[…]-3′; NQO1 Forward 5′-[…]-3′ and reverse 5′-[…]-3′ and Txnrd2 forward 5′-[…]-3 and reverse 5′-[…]. Oligonucleotides were synthesized by the CCIB DNA Core Facility at Massachusetts General Hospital. Expression of human GAPDH was used to mRNA normalization and relative mRNA expression was calculated using the comparative Ct method.
In vivo Tumor Models: Animal experiments performed by our laboratory were approved by the Massachusetts General Hospital Subcommittee on Research Animal Care. Female athymic nude mice (6-8 weeks) were used in all studies with the exception of pharmacokinetics analysis. For brain tumors xenograft model, GBM8 cells (1×10^5 cells/mouse) stably expressing Fluc were stereotactically implanted into the left striatum of animals. […] Tumor volumes were measured using a caliper and calculated according to the following formula: volume=(width)^2×length/2. […]

HO1, NQO1, TXNRD2 mRNA = experiment: qRT-PCR of Nrf2 target genes in cancer cells; assay type: cell-based, human
Procedure: as §1

bovine catalase = molecular target: T1, bovine catalase (Bos taurus, UniProt P00432); experiment: Differential alkylation mass spectrometry, catalase; assay type: binding
T1 construct: purchased Sigma-Aldrich
T1 sequence (P00432 1-527): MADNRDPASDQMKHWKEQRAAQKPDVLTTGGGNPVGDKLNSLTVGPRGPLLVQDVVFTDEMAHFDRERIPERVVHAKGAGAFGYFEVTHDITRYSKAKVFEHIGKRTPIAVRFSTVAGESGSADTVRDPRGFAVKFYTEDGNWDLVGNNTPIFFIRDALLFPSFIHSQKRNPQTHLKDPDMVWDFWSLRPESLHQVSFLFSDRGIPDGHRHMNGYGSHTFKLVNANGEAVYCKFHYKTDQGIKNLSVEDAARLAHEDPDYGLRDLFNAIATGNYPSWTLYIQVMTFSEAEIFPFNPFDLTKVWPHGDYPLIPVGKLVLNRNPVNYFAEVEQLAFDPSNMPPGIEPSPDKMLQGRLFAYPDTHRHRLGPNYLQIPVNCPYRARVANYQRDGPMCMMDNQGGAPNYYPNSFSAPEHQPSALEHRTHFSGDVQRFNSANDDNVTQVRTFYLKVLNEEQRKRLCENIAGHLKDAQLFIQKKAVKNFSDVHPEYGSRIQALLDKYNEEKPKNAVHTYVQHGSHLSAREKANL
Procedure: Differential Alkylation for OBT Binding Characterization: 10 μg of bovine catalase (Sigma-Aldrich) were suspended in 100 μl of 50 mM HEPES (pH 8.5)/0.5% SDS and OBT, iodoacetamide (IAA), or N-ethylmaleimide (NEM) was added to a final concentration of 5 mM and the mixtures were incubated for 30 min at RT in the dark before adding IAA to all three reactions to a final concentration of 10 mM in the sample treated with IAA in the first alkylation step, and of 5 mM in the other two samples. Upon incubation at RT for 30 min in the dark dithiothreitol (DTT) was added to all reaction to a final concentration of 20 mM and the reactions were first incubated at RT in the dark for 15 min and then at 56° C. for 30 min. Then, NEM was added to all reactions to a final concentration of 100 mM followed by incubation at RT in the dark for 30 min. The experiments were done in triplicate. Samples were analyzed by mass spectrometry as described below.
Quantitative Proteomics: Cell pellets were lysed in a buffer of 75 mM NaCl, 50 mM HEPES pH 8.5, 10 mM sodium pyrophosphate, 10 mM sodium fluoride, 10 mM β-glycerophosphate, 10 mM sodium orthovanadate, 10 mM PMSF, Roche complete mini EDTA free protease inhibitors (1 tablet per 20 ml), and 3% SDS. Lysis was achieved by passing the suspension through a 21-gauge needle 20 times. Proteins were prepared for proteomics analysis as described previously. […] Twelve fractions were analyzed by multiplexed quantitative proteomics performed on an Orbitrap Fusion mass spectrometer (Thermo Scientifc) using a Simultaneous Precursor Selection (SPS) based MS3 method. […] For the cell line samples only MS3 with an average signal-to-noise value of larger than 40 per reporter ion as well as with an isolation specificity of larger than 0.75 were considered for quantification. […] A two-step normalization of the protein TMT-intensities was performed by first normalizing the protein intensities over all acquired TMT channels for each protein based on the median average protein intensity calculated for all proteins. […]

[2] = 2-fold excess of DTT over alkylating reagents

With `COC1=CC(=O)C(O)=C/C1=C/C=C/c1ccccc1` [OBT, (Z)-2-hydroxy-5-methoxy-4-((E)-3-phenylallylidene)cyclohexa-2,5-dien-1-one] as the compound, how does the “upregulation of HO1 transcripts in the tumor” value [1] read?
The value was 7 fold.

And the “NQO1 and TXNRD2 mRNA” value (HO1, NQO1, TXNRD2 mRNA; U87 and MDA-MB-231 cells)?
The value was “upregulated”.

What about the “HO1 mRNA expression” value (HO1, NQO1, TXNRD2 mRNA; different cancer cells, 8 hours, normalized to GAPDH) of the same compound?
Its value is “strong increase”.

What about the “binding to cysteine residues of bovine catalase” value (bovine catalase; 5 mM OBT, differential alkylation) of the same compound?
Its value is “binds to all detected peptides with cysteine residues”.

And the “binding type at Cys-232 and Cys-460” value (bovine catalase; [2])?
Its value is “tight or irreversible binding”.

What about the “binding type at Cys-377” value (bovine catalase; [2]) of the same compound?
The value was “reversible binding”.
